Measurements published in patent US11578055B2, “Triazacyclododecansulfonamide (“TCD”)-based protein secretion inhibitors” (KEZAR LIFE SCIENCES, priority 2018, dated 2023).
pIC50: −log10 of the molar value. Read-outs that look alike come from different tables or passages of the source.

How the values were obtained:
IL-23 = assay: Human PBMC Cytokine Assay: IL-23; type: cell-based; conditions: LPS stimulation, 24 hours
Procedure: (§1) Human PBMC were freshly isolated from whole blood collections of 3 normal donors utilizing density gradient centrifugation followed by red blood cell lysis. PBMC from each donor were assayed separately. Cells were suspended in RPMI 1640 media supplemented with 5% fetal bovine serum, 2 mM L-glutamine, 10 mM HEPES, and 1× penicillin/streptomycin. PBMC were seeded at 200,000 cells/well in 96-well round-bottom plates either without stimulation or with stimulation by lipopolysaccharide (LPS, 1 μg/mL) or antibodies against human CD3 (plate-bound, 2 μg/mL) and human CD28 (soluble, 2 μg/mL). Serial dilutions of compound in DMSO/media were simultaneously added and PBMC were incubated at 37° C., 5% CO2 for 24 hours. After 24 hours, plates were centrifuged and half of the supernatant volume removed for cytokine analysis by electrochemiluminescent immunoassay (U-PLEX® Biomarker Multiplex, Meso Scale Discovery). For viability analysis, CellTiter-Glo® (Promega) was added to the remaining material in each well and quantified via luminescent plate reader.

[1] = system: full length TNFα (amino acids 1-233) fused to Gaussia Luciferase; assay: Dox Induced TNFα-FL-Gluc Assay; type: cell-based; conditions: 24 hr, Dox inducible, 293FRT/TO cells; read-out: 24 hr Dox Inducible TNFaFLGluc 293FRT/TO: Mean IC50
In short: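 Stable Flp-In 293 T-REx line expressing doxycycline-inducible full-length TNFα fused to Gaussia luciferase; cells plated the day before, then treated with compound dilutions in doxycycline-containing medium at 37° C, 5% CO2. Unspecified stereocentres mean stereoisomer mixtures were tested.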

[2] = system: target signal sequences plus 10 amino acids fused to Gaussia Luciferase; assay: Transiently Expressed Dox Induced Signal Sequence-Gluc Assay; type: cell-based; conditions: read-out: Signal Sequence-Gluc potency
Procedure: FIp-In 293 T-REx™ cells were transfected with 500 ng pcDNA™5/FRT/TO plasmids inserted with cDNA encoding Gaussia Luciferase fused to the 3′ end of cDNA encoding target signal sequences plus 10 amino acids. Transfected cells were incubated overnight then cells were trypsinized and plated in 384-well tissue culture plates. The next day, compound dilutions in DMSO/media containing doxycycline were added to the wells and incubated at 37° C., 5% CO2.

[3] = system: full length IL-2 (amino acids 1-153) fused to Gaussia Luciferase; assay: Dox Induced IL2-FL-Gluc Assay; type: cell-based; conditions: 24 hr, Dox inducible, 293FRT/TO cells; read-out: 24 hr Dox Inducible IL2FLGluc 293FRT/TO: Mean IC50
In short: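 Flp-In 293 T-REx stable line expressing full-length IL-2 (aa 1-153) with C-terminal Gaussia luciferase fusion under doxycycline-inducible control. Cells plated the day before; compound dilutions added in DMSO/media containing doxycycline, incubated at 37° C, 5% CO2.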

[4] = In Vitro Microsome Stability Assay (rat); type: in vitro ADME; conditions: rat liver microsomes, 30 min w/ NADPH
In short: (§2)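 The value reported is the percentage of parent left after 30 min, calculated from analyte/IS peak-area ratios relative to time zero by LC-MS/MS. Incubations ran at 37° C in 0.1 M potassium phosphate with NADPH and microsomes (stock 20 mg/mL), with compound added from a 0.25 mM DMSO stock. Acetonitrile containing IS stopped the reactions.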

IL-6 = assay: Human PBMC Cytokine Assay: IL-6; type: cell-based; conditions: LPS stimulation, 24 hours
Procedure: as §1

[5] = In Vitro Microsome Stability Assay (human); type: in vitro ADME; conditions: human liver microsomes, 30 min w/ NADPH
In short: as §2

TNFα = assay: Human PBMC Cytokine Assay: TNFα; type: cell-based; conditions: anti-CD3/CD28 stimulation, 24 hours
Procedure: as §1

Compound: COc1cc(F)ccc1N1CCN(S(=O)(=O)N2CCCN(CC3CCCCC3)CCCN(S(=O)(=O)c3ccc(N(C)C)cc3)C[C@H](C)C2)CC1 [A137]
- IC50 (IL-23): 79 nM
- pIC50 [1]: 6.72
- pIC50 ([2]; Target ADAM10 signal peptide +10 amino acids): 6.90
- pIC50 ([2]; Target B7H3 signal peptide +10 amino acids): 8.05
- pIC50 ([2]; Target CD73 signal peptide +10 amino acids): 7.36
- pIC50 ([2]; Target CD96 signal peptide +10 amino acids): 8.15
- pIC50 ([2]; Target CTLA-4 signal peptide +10 amino acids): 6.95
- pIC50 ([2]; Target EGFR signal peptide +10 amino acids): 7.33
- pIC50 ([2]; Target GP130 signal peptide +10 amino acids): 6.79
- pIC50 ([2]; Target HER3 signal peptide +10 amino acids): 7.24
- pIC50 ([2]; Target IFN-a1 signal peptide +10 amino acids): 7.24
- pIC50 ([2]; Target IFN-a2 signal peptide +10 amino acids): 7.36
- pIC50 ([2]; Target IFN-a4 signal peptide +10 amino acids): 7.05
- pIC50 ([2]; Target IFN-b signal peptide +10 amino acids): 6.54
- pIC50 ([2]; Target IFNAR1 signal peptide +10 amino acids): 8.22
- pIC50 ([2]; Target IFNAR2 signal peptide +10 amino acids): 7.38
- pIC50 ([2]; Target IL-1R1 signal peptide +10 amino acids): 6.55
- pIC50 ([2]; Target IL-1R2 signal peptide +10 amino acids): 7.77
- pIC50 ([2]; Target IL-1Ra (isoform 1) signal peptide +10 amino acids): 7.33
- pIC50 ([2]; Target IL-2Ra (CD25) signal peptide +10 amino acids): 7.26
- pIC50 ([2]; Target IL-6R signal peptide +10 amino acids): 7.32
- pIC50 ([2]; Target IL-6 signal peptide +10 amino acids): 7.42
- pIC50 ([2]; Target IL-7R signal peptide +10 amino acids): 7.80
- pIC50 ([2]; Target IL-12b (p40) signal peptide +10 amino acids): 7.13
- pIC50 ([2]; Target IL-17Ra signal peptide +10 amino acids): 6.75
- pIC50 ([2]; Target IL-17a signal peptide +10 amino acids): 6.67
- pIC50 ([2]; Target IL-23R signal peptide +10 amino acids): 7.33
- pIC50 ([2]; Target IL-23a signal peptide +10 amino acids): 6.65
- pIC50 ([2]; Target LAG3 signal peptide +10 amino acids): 7.32
- pIC50 ([2]; Target PD-L1 signal peptide +10 amino acids): 7.72
- pIC50 ([2]; Target PDGFRa signal peptide +10 amino acids): 7.43
- pIC50 ([2]; Target TACE (ADAM17) signal peptide +10 amino acids): 7.40
- pIC50 ([2]; Target TIGIT signal peptide +10 amino acids): 7.10
- pIC50 ([2]; Target TIM3 signal peptide +10 amino acids): 6.88
- pIC50 ([2]; Target TNFR1 signal peptide +10 amino acids): 6.82
- pIC50 ([2]; Target TNFR2 signal peptide +10 amino acids): 6.73
- pIC50 ([2]; Target VEGF signal peptide +10 amino acids): 7.29
- pIC50 ([2]; Target VGFR2 signal peptide +10 amino acids): 6.67
- pIC50 ([2]; Target VISTA signal peptide +10 amino acids): 6.82
- pIC50 [3]: 7.67
- Liver Microsome Stability-% Left after 30 min w/ NADPH (%) Rat [4]: 31.6%
- IC50 (IL-6): 12 nM
- Liver Microsome Stability-% Left after 30 min w/ NADPH (%) Human [5]: 48.8%
- IC50 (TNFα): 17 nM
